Data taken from ChEMBL document CHEMBL4138123, “Design, synthesis and biological evaluation of novel pyrazolochalcones as potential modulators of PI3K/Akt/mTOR pathway and inducers of apoptosis in breast cancer cells” (Eur J Med Chem, 2017).

Legend:
M14 [1] = assay: Cytotoxicity against human M14 cells assessed as cell growth at 1 uM after 48 hrs by sulforhodamine B assay relative to control; type: functional; conditions: M14, 48 h, read-out: Activity
RXF 393 = assay: Cytotoxicity against human RXF393 cells assessed as cell growth at 10 uM after 48 hrs by sulforhodamine B assay relative to control; type: functional; conditions: RXF 393, 48 h, read-out: Activity
HL-60(TB) [2] = assay: Cytotoxicity against human HL-60(TB) cells assessed as cell growth at 0.1 uM after 48 hrs by sulforhodamine B assay relative to control; type: functional; conditions: HL-60, 48 h, read-out: Activity
BT-549 [3] = assay: Cytotoxicity against human BT549 cells assessed as cell growth at 0.01 uM after 48 hrs by sulforhodamine B assay relative to control; type: functional; conditions: BT-549, 48 h, read-out: Activity
HT-29 [4] = assay: Cytotoxicity against human HT-29 cells assessed as cell growth at 1 uM after 48 hrs by sulforhodamine B assay relative to control; type: functional; conditions: HT-29, 48 h, read-out: Activity
SW-620 = assay: Cytotoxicity against human SW620 cells assessed as cell growth at 100 uM after 48 hrs by sulforhodamine B assay relative to control; type: functional; conditions: SW-620, 48 h, read-out: Activity
UACC-257 = assay: Cytotoxicity against human UACC257 cells assessed as growth inhibition after 48 hrs by sulforhodamine B assay; type: functional; conditions: UACC-257, 48 h
NCI-H522 [5] = assay: Cytotoxicity against human NCI-H522 cells assessed as cell growth at 10 uM after 48 hrs by sulforhodamine B assay relative to control; type: functional; conditions: NCI-H522, 48 h, read-out: Activity
U-251 = assay: Cytotoxicity against human U251 cells assessed as cell growth at 0.1 uM after 48 hrs by sulforhodamine B assay relative to control; type: functional; conditions: U-251, 48 h, read-out: Activity
M14 [6] = assay: Cytotoxicity against human M14 cells assessed as cell growth at 100 uM after 48 hrs by sulforhodamine B assay relative to control; type: functional; conditions: M14, 48 h, read-out: Activity
SR [7] = assay: Cytotoxicity against human SR cells assessed as cell growth at 10 uM after 48 hrs by sulforhodamine B assay relative to control; type: functional; conditions: read-out: Activity
786-0 [8] = assay: Cytotoxicity against human 786-0 cells assessed as cell growth at 0.01 uM after 48 hrs by sulforhodamine B assay relative to control; type: functional; conditions: 786-0, 48 h, read-out: Activity
BT-549 [9] = assay: Cytotoxicity against human BT549 cells assessed as growth inhibition after 48 hrs by sulforhodamine B assay; type: functional; conditions: BT-549, 48 h
SK-MEL-2 = assay: Cytotoxicity against human SK-MEL-2 cells assessed as growth inhibition after 48 hrs by sulforhodamine B assay; type: functional; conditions: SK-MEL-2, 48 h
ACHN = assay: Cytotoxicity against human ACHN cells assessed as growth inhibition after 48 hrs by sulforhodamine B assay; type: functional
HT-29 [10] = assay: Cytotoxicity against human HT-29 cells assessed as growth inhibition after 48 hrs by sulforhodamine B assay; type: functional; conditions: HT-29, 48 h
NCI-H522 [11] = assay: Cytotoxicity against human NCI-H522 cells assessed as cell growth at 100 uM after 48 hrs by sulforhodamine B assay relative to control; type: functional; conditions: NCI-H522, 48 h, read-out: Activity
Hs-578T = assay: Cytotoxicity against human Hs 578T cells assessed as cell growth at 0.1 uM after 48 hrs by sulforhodamine B assay relative to control; type: functional; conditions: read-out: Activity
NCI-H23 = assay: Cytotoxicity against human NCI-H23 cells assessed as cell growth at 100 uM after 48 hrs by sulforhodamine B assay relative to control; type: functional; conditions: NCI-H23, 48 h, read-out: Activity
OVCAR-5 = assay: Cytotoxicity against human OVCAR5 cells assessed as growth inhibition after 48 hrs by sulforhodamine B assay; type: functional; conditions: OVCAR-5, 48 h
HL-60(TB) [12] = assay: Cytotoxicity against human HL-60(TB) cells assessed as cell growth at 100 uM after 48 hrs by sulforhodamine B assay relative to control; type: functional; conditions: HL-60, 48 h, read-out: Activity
IGROV-1 = assay: Cytotoxicity against human IGROV1 cells assessed as cell growth at 100 uM after 48 hrs by sulforhodamine B assay relative to control; type: functional; conditions: IGROV-1, 48 h, read-out: Activity
HOP-62 = assay: Cytotoxicity against human HOP62 cells assessed as cell growth at 1 uM after 48 hrs by sulforhodamine B assay relative to control; type: functional; conditions: HOP-62, 48 h, read-out: Activity
SF-539 = assay: Cytotoxicity against human SF539 cells assessed as growth inhibition after 48 hrs by sulforhodamine B assay; type: functional; conditions: SF-539, 48 h
SK-MEL-28 = assay: Cytotoxicity against human SK-MEL-28 cells assessed as cell growth at 1 uM after 48 hrs by sulforhodamine B assay relative to control; type: functional; conditions: SK-MEL-28, 48 h, read-out: Activity
SR [13] = assay: Cytotoxicity against human SR cells assessed as growth inhibition after 48 hrs by sulforhodamine B assay; type: functional
NCI-H226 = assay: Cytotoxicity against human NCI-H226 cells assessed as cell growth at 0.01 uM after 48 hrs by sulforhodamine B assay relative to control; type: functional; conditions: NCI-H226, 48 h, read-out: Activity
MDA-MB-231 = assay: Cytotoxicity against human MDA-MB-231 cells assessed as growth inhibition after 48 hrs by MTT assay; type: functional, cell-based; conditions: MDA-MB-231, 48 h
NCI/ADR-RES = assay: Cytotoxicity against human NCI/ADR-RES cells assessed as cell growth at 0.1 uM after 48 hrs by sulforhodamine B assay relative to control; type: functional; conditions: read-out: Activity
SN12C = assay: Cytotoxicity against human SN12C cells assessed as cell growth at 0.01 uM after 48 hrs by sulforhodamine B assay relative to control; type: functional; conditions: read-out: Activity
Malme-3M = assay: Cytotoxicity against human MALME-3M cells assessed as growth inhibition after 48 hrs by sulforhodamine B assay; type: functional
RPMI-8226 = assay: Cytotoxicity against human RPMI8226 cells assessed as cell growth at 100 uM after 48 hrs by sulforhodamine B assay relative to control; type: functional; conditions: RPMI-8226, 48 h, read-out: Activity
DU-145 = assay: Cytotoxicity against human DU145 cells assessed as cell growth at 0.1 uM after 48 hrs by sulforhodamine B assay relative to control; type: functional; conditions: DU-145, 48 h, read-out: Activity
786-0 [14] = assay: Cytotoxicity against human 786-0 cells assessed as cell growth at 100 uM after 48 hrs by sulforhodamine B assay relative to control; type: functional; conditions: 786-0, 48 h, read-out: Activity
M14 [15] = assay: Cytotoxicity against human M14 cells assessed as cell growth at 0.1 uM after 48 hrs by sulforhodamine B assay relative to control; type: functional; conditions: M14, 48 h, read-out: Activity
CCRF-CEM = assay: Cytotoxicity against human CCRF-CEM cells assessed as cell growth at 1 uM after 48 hrs by sulforhodamine B assay relative to control; type: functional; conditions: read-out: Activity

COc1ccc(-c2cc(/C=C/C(=O)c3ccc(N)cc3)[nH]n2)cc1OC
growth at 1 µM (M14 [1]): 101% | growth at 10 µM (RXF 393): -39% | growth at 0.1 µM (HL-60(TB) [2]): 104% | growth at 0.01 µM (BT-549 [3]): 84% | growth at 1 µM (HT-29 [4]): 99% | growth at 100 µM (SW-620): -53% | GI50 (UACC-257): 6.46 µM | LC50 (UACC-257): 45.7 µM | TGI (UACC-257): 19.5 µM | growth at 10 µM (NCI-H522 [5]): -84% | growth at 0.1 µM (U-251): 95% | growth at 100 µM (M14 [6]): -90% | growth at 10 µM (SR [7]): -13% | growth at 0.01 µM (786-0 [8]): 91% | GI50 (BT-549 [9]): 1.5 µM | LC50 (concentration killing 50% of cells) (BT-549 [9]): 5.77 µM | TGI (BT-549 [9]): 2.94 µM | GI50 (SK-MEL-2): 8.44 µM | LC50 (concentration killing 50% of cells) (SK-MEL-2): 53.2 µM | TGI (SK-MEL-2): 22.2 µM | GI50 (ACHN): 1.67 µM | LC50 (ACHN): 6.48 µM | TGI (ACHN): 3.29 µM | GI50 (HT-29 [10]): 2.6 µM | LC50 (HT-29 [10]): 58.9 µM | TGI (HT-29 [10]): 6.91 µM | growth at 100 µM (NCI-H522 [11]): -92% | growth at 0.1 µM (Hs-578T): 93% | growth at 100 µM (NCI-H23): -51% | GI50 (OVCAR-5): 2.62 µM | LC50 (OVCAR-5): 36.3 µM | TGI (OVCAR-5): 7.94 µM | growth at 100 µM (HL-60(TB) [12]): 3% | growth at 100 µM (IGROV-1): -62% | growth at 1 µM (HOP-62): 92% | GI50 (SF-539): 1.73 µM | LC50 (concentration killing 50% of cells) (SF-539): 7.19 µM | TGI (SF-539): 3.53 µM | growth at 1 µM (SK-MEL-28): 89% | GI50 (SR [13]): 0.58 µM | TGI (SR [13]): 5.31 µM | CC50 (SR [13]; read-out: LC50 (the source's name)): > 100 µM | growth at 0.01 µM (NCI-H226): 93% | IC50 (MDA-MB-231): 2.2 µM | growth at 0.1 µM (NCI/ADR-RES): 104% | growth at 0.01 µM (SN12C): 101% | GI50 (Malme-3M): 6.72 µM | LC50 (Malme-3M): 59.2 µM | TGI (Malme-3M): 21.2 µM | growth at 100 µM (RPMI-8226): -40% | growth at 0.1 µM (DU-145): 110% | growth at 100 µM (786-0 [14]): -97% | growth at 0.1 µM (M14 [15]): 97% | growth at 1 µM (CCRF-CEM): 68%
